This note sets out measurements from PMC7155755, “Binding of the Human 14-3-3 Isoforms to Distinct Sites in the Leucine-Rich Repeat Kinase 2” (Frontiers in Neuroscience, 2020).

Entries after “also recorded” stand apart in the source; their conditions may differ. Square brackets hold non-standard residues; d marks the D form. Primed or numbered codes have the meaning given here. Ends that are not written are not given here. fluorescein″ = fluorescein label on the N-terminus; fluorescein = N-terminal fluorescein label; pS = N[C@@H](COP(=O)(O)O)C(=O)O

For one test, the target named is T1, human 14-3-3γ (Homo sapiens, UniProt P61981).
T1 construct: MBP (cleaved yes); made in house; host or cells: E. coli BL21DE3
T1 sequence (P61981 1-247): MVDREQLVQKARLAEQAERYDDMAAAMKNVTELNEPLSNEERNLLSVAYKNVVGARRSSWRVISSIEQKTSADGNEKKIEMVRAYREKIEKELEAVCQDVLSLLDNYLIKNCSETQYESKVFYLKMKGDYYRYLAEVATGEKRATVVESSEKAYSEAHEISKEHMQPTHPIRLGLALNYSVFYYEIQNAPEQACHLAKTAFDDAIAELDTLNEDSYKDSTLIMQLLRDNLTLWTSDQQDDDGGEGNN
Nature of the test: Fluorescence polarization (FP) direct binding assay. The note with it: fluorescein-labeled peptide 1 nM; for Kd: 20 mM MOPS pH 7, 150 mM NaCl, 0.005% CHAPS, at least three independent measurements, read-out: Binding affinity (KD) toward 14-3-3 isoform γ; for Binding to 14-3-3γ, in words: dilution series of 14-3-3γ (at least 5 μM down to pM), FP buffer pH 7. Here is the method:
(§1) Human MBP-tagged 14-3-3 isoforms were expressed from pMAL2CX plasmids [[Kilisch et al. (2016)], [Yuan et al. (2003)]] in E. coli BL21DE3 cells. After induction with […] isopropyl-β-D-thiogalactoside, the protein was expressed for 4 h at room temperature. Cells were lysed in MBP-lysis buffer [50 mM Tris–HCl pH 7.5, 150 mM NaCl, 5 mM MgCl2, 1 mM PMSF, 1× cOmplete Protease Inhibitor EDTA-free (Roche)] using a French Pressure cell (FRENCH Press, Thermo, United States). Following centrifugation at 42,000 × g and 4°C for 30 min, the supernatant was transferred to a Maltose-agarose column (1.5 ml bed volume; New England Biolabs GmbH, Germany). Captured proteins were washed six times with 10 ml wash buffer (50 mM Tris–HCl pH 7.5, 150 mM NaCl, 5 mM MgCl2) prior to elution using wash buffer including 15 mM D-maltose. To remove the MBP tag, fusion proteins were incubated with Factor Xa (New England Biolabs GmbH, Germany), at a final concentration of 0.4 μg per 1 mg fusion protein for 24 h at RT following another 72 h at 4°C. Anion exchange chromatography was finally applied to separate residual MBP using a buffer gradient from 20 mM Tris pH 8 to 20 mM Tris pH 8 with 1 M NaCl. For this a RESOURCE Q column (GE Healthcare, United Kingdom) was utilized, employing an ÄKTApurifier (GE Healthcare, United Kingdom) or an NGC Quest Chromatography System (Bio-Rad Laboratories GmbH, Germany).
(§2) FP was used to determine binding affinities of different phosphorylated and non-phosphorylated peptides derived from LRRK2 sequences (Peps4LS GmbH, Germany) toward human 14-3-3 isoforms. Direct binding assays were performed and evaluated as previously described ([Muda et al., 2014]; [Manschwetus et al., 2019]). Briefly, both dilution series of 14-3-3 isoforms ranging from final concentrations of at least 5 μM down to picomolar concentrations and dilutions of the respective fluorescein-labeled peptide (final conc. 1 nM) were prepared in FP buffer (20 mM MOPS pH 7, 150 mM NaCl, 0.005% CHAPS). Subsequently, samples were mixed in 384-well microtiter plates as duplicates (BRAND plates, pureGrade, black, BRAND GmbH & Co. KG, Germany) in a 1:1 ratio and measured using a CLARIOstar plate reader (BMG LABTECH, Germany). Two protein preparations were utilized for at least two independent replications for all measurements while high affinity binding peptides were particularly measured with a minimum of three independent replications for statistical evaluation. Data was analyzed with GraphPad Prism 6.0 (GraphPad Software, San Diego, CA, United States) by plotting obtained FP signals (mPol) against the logarithmic 14-3-3 protein concentrations. Data points represent means ± standard error of mean (SEM) of duplicates. “Ctrl.” indicates the FP signal of fluorescein-labeled peptides without 14-3-3 protein. Sigmoidal dose-response fitting was performed to define KD-values.

In test [1] the test system is all seven human 14-3-3 isoforms. Put plainly: Fluorescence polarization (FP) direct binding assay, statements over all isoforms. Conditions: for Binding to the human 14-3-3 isoforms, in words: FP direct binding, all seven isoforms, fluorescein-labeled peptide 1 nM, FP buffer pH 7. As to the method:
as §1, §2

The target in a further test is pS1444. Put plainly: fluorescence polarisation; direct binding; dilution series of 14-3-3 isoform (at least 5 μM down to picomolar) mixed with 1 nM fluorescein-labelled peptide; 20 mM MOPS pH 7, 150 mM NaCl, 0.005% CHAPS; 384-well plates.
A further test has as its target T2, R1441C/pS1444 (R1441C (stands in the printed letters)).
T2 construct: LRRK2-derived peptide of the Roc domain with the familial PD mutation R1441C, phosphorylated at S1444; source: synthetic peptide (Peps4LS GmbH)
T2 peptide: fluorescein-LFNIKACAS[pS]SPVILVGT
The description is as above. The note with it: both partners purified.

Turning to `CC[C@H](C)[C@H](NC(=O)[C@@H]1CCCN1C(=O)CNC(=O)[C@H](CC(C)C)NC(=O)[C@H](COP(=O)(O)O)NC(=O)[C@H](CC(N)=O)NC(=O)[C@H](CO)NC(=O)[C@H](Cc1c[nH]cn1)NC(=O)[C@H](CCCNC(=N)N)NC(=O)[C@H](CCCNC(=N)N)NC(=O)[C@H](CC(C)C)NC(=O)[C@H](CC(N)=O)NC(=O)[C@@H]1CCCN1C(=O)[C@H](CO)NC(=O)[C@H](CS)NC(=O)[C@@H](N)CCCNC(=N)N)C(=O)N[C@@H](Cc1ccccc1)C(=O)N[C@@H](CC(=O)O)C(=O)N[C@@H](Cc1c[nH]cn1)C(=O)O` [Q930R/pS935], the dissociation constant (Kd) at human 14-3-3γ amounted to 11.1 ± 10.7 nM.
On the same count and under the same terms, the value for `CC[C@H](C)[C@H](NC(=O)[C@H](COP(=O)(O)O)NC(=O)[C@H](CC(N)=O)NC(=O)[C@H](CO)NC(=O)[C@H](CCCCN)NC(=O)[C@@H](N)CCCCN)C(=O)N[C@@H](CO)C(=O)N[C@H](C(=O)NCC(=O)N[C@@H](CCC(=O)O)C(=O)N[C@@H](Cc1ccccc1)C(=O)N[C@@H](Cc1ccc(O)cc1)C(=O)N[C@@H](CCCNC(=N)N)C(=O)N[C@@H](CC(=O)O)C(=O)N[C@@H](C)C(=O)N[C@H](C(=O)N[C@@H](CC(C)C)C(=O)N[C@@H](CCC(N)=O)C(=O)N[C@@H](CCCNC(=N)N)C(=O)N[C@@H](CS)C(=O)N[C@@H](CO)C(=O)N1CCC[C@H]1C(=O)N[C@@H](CC(N)=O)C(=O)N[C@@H](CC(C)C)C(=O)N[C@@H](CCC(N)=O)C(=O)N[C@@H](CCCNC(=N)N)C(=O)N[C@@H](Cc1c[nH]cn1)C(=O)N[C@@H](CO)C(=O)N[C@@H](CC(N)=O)C(=O)N[C@@H](COP(=O)(O)O)C(=O)N[C@@H](CC(C)C)C(=O)NCC(=O)N1CCC[C@H]1C(=O)N[C@H](C(=O)N[C@@H](Cc1ccccc1)C(=O)O)[C@@H](C)CC)C(C)C)C(C)C` [pS910/pS935] was 3.2 ± 0.5 nM.
On to “KKSN SISVGEFYRDAVLQRCSPNLQRHSNSLGPIF ({fluorescein″}-KKSNSISVGEFYRDAVLQRCSPNLQRHSNSLGPIF) [S910/S935, fluorescein-labeled non-phosphorylated LRRK2-derived 35-mer encompassing S910 and S935]”, for which, in the test with human 14-3-3γ, the “Binding to 14-3-3γ, in words” value was “did not bind”.
On to “KKSNSISVGEFYRDAVLQRCSPNLQRHSNpSLGPIF [S910/pS935, fluorescein-labeled LRRK2-derived 35-mer singly phosphorylated at S935]”, for which the “Binding to the human 14-3-3 isoforms, in words” value in test [1] is “no isoform specificity could be distinguished”. Moreover, on human 14-3-3γ, the “Binding to 14-3-3γ, in words” value is “only weak interactions”.
In the same order, the values of “KKSNpSISVGEFYRDAVLQRCSPNLQRHSNSLGPIF [pS910/S935, fluorescein-labeled LRRK2-derived 35-mer singly phosphorylated at S910]” are “no isoform specificity could be distinguished” and “only weak interactions”.
Regarding “LFNIKACASSSPVILVGT [R1441C, fluorescein-labeled non-phosphorylated LRRK2 Roc domain peptide with mutation R1441C]”, the “Binding to the human 14-3-3 isoforms, in words” value in test [1] is listed as “did not bind any of the 14-3-3 isoforms”. For the same molecule, at human 14-3-3γ, the “Binding to 14-3-3γ, in words” value is given as “did not bind; also recorded: no binding”.
“LFNIKACASpSSPVILVGT [R1441C/pS1444, fluorescein-labeled LRRK2 Roc domain peptide with R1441C and pS1444]”: in test [1], the “Binding to the human 14-3-3 isoforms, in words” value is reported as “affinities in the micromolar range”. Besides, the “Factor by which the mutation R1441C decreases the affinity to all 14-3-3 isoforms” value in test [1] (FP, R1441C/pS1444 compared with pS1444) is reported as ≥ 30. The “Binding to 14-3-3γ, in words” value on human 14-3-3γ is listed as “micromolar affinities; also recorded: strongly decreased the nanomolar affinity of pS1444 alone”.
Consider “LFNIKARASSSPVILVGT [S1443/S1444, fluorescein-labeled non-phosphorylated LRRK2 Roc domain peptide covering S1443 and S1444]”, for which the “Binding to the human 14-3-3 isoforms, in words” value in test [1] is “no detectable binding”.
For the molecule “LFNIKARApSSSPVILVGT [pS1443, fluorescein-labeled LRRK2 Roc domain phosphopeptide, pS1443]”, in test [1], the “Binding to the human 14-3-3 isoforms, in words” value was “no detectable binding; also recorded: not demonstrated for any isoform”. Further, the “Binding to 14-3-3γ, in words” value at human 14-3-3γ is on record as “did not allow for binding”.
In the same order, the values of “RCSPNLQRHpSNSLGPIFDH [pS933, fluorescein-labeled LRRK2-derived phosphopeptide covering pS933]” are “no 14-3-3 binding was detectable” and “neither the Q930R mutation nor the additional phosphorylation in pS933 could induce binding”.
On to “RCSPNLRRHSNSLGPIFDH [Q930R, fluorescein-labeled non-phosphorylated LRRK2-derived peptide with mutation Q930R]”, for which the “Binding to 14-3-3γ, in words” value at human 14-3-3γ is reported as “neither the Q930R mutation nor the additional phosphorylation in pS933 could induce binding”.
For the molecule “RCSPNLRRHpSNSLGPIFDH [Q930R/pS933, fluorescein-labeled LRRK2-derived peptide with mutation Q930R and pS933]”, the “Binding to the human 14-3-3 isoforms, in words” value in test [1] is reported as “no 14-3-3 binding was detectable”.
For the molecule “SPNLQRHSNpSLGPIF [pS935, fluorescein-labeled LRRK2-derived phosphopeptide covering pS935]”, the “Binding to the human 14-3-3 isoforms, in words” value in test [1] is reported as “no binding could be detected; also recorded: could not detect binding; also recorded: non-binding”. The “Binding to 14-3-3γ, in words” value at human 14-3-3γ is “did not bind; also recorded: no binding was detected”.

B1: human 14-3-3 isoform ε (recombinant, MBP tag removed) (natural protein, UniProt P62258 1-255, looked up)
chain: MDDREDLVYQAKLAEQAERYDEMVESMKKVAGMDVELTVEERNLLSVAYKNVIGARRASWRIISSIEQKEENKGGEDKLKMIREYRQMVETELKLICCDILDVLDKHLIPAANTGESKVFYYKMKGDYHRYLAEFATGNDRKEAAENSLVAYKAASDIAMTELPPTHPIRLGLALNFSVFYYEILNSPDRACRLAKAAFDDAIAELDTLSEESYKDSTLIMQLLRDNLTLWTSDMQGDGEEQNKEALQDVEDENQ
notes: 14-3-3 epsilon, human; Expressed from pMAL2CX plasmids; also called 14-3-3ε; source: E. coli BL21DE3, purified (maltose-agarose, Factor Xa, anion exchange)
For B1, in the test with pS1444, the Kd is > 1000 nM. Moreover, in the test with R1441C/pS1444, the “fold decrease in affinity against pS1444” value is ≥ 30 fold.

B2: human 14-3-3 isoform β (recombinant, MBP tag removed) (natural protein, UniProt P31946 1-246, looked up)
chain: MTMDKSELVQKAKLAEQAERYDDMAAAMKAVTEQGHELSNEERNLLSVAYKNVVGARRSSWRVISSIEQKTERNEKKQQMGKEYREKIEAELQDICNDVLELLDKYLIPNATQPESKVFYLKMKGDYFRYLSEVASGDNKQTTVSNSQQAYQEAFEISKKEMQPTHPIRLGLALNFSVFYYEILNSPEKACSLAKTAFDEAIAELDTLNEESYKDSTLIMQLLRDNLTLWTSENQGDEGDAGEGEN
notes: 14-3-3 beta, human; Expressed from pMAL2CX plasmids; also called 14-3-3β; source: E. coli BL21DE3, purified (maltose-agarose, Factor Xa, anion exchange)
In the test with pS1444, B2 showed a Kd of 183 nM. Moreover, the “fold decrease in affinity against pS1444” value with R1441C/pS1444 is ≥ 30 fold.
